Experimental data as given in publication PMC7615700, “Is the ADP ribose site of the Chikungunya virus NSP3 Macro domain a target for antiviral approaches?” (Acta tropica, 2020).

What was measured:
[1] = system: CHIKV-Fluc SGR (CHIKV subgenomic replicon) in Huh-7 cells; experiment: CHIKV-Fluc SGR replication assay (luciferase) in Huh-7 cells; settings: for EC50 / CHIKV %replication 20 uM: Huh-7, CHIKV-Fluc SGR; for EC50: 24 h post treatment; for SI (CC50/EC50): Huh-7; for CHIKV %replication 20 uM: 24 h treatment; for inhibition at 20 µM: Huh-7, read-out: inhibition of CHIKV replication
[2] = MTT cell viability assay in Huh-7 cells; settings: human
[3] = system: CHIKV; settings: cited from earlier work; for in vitro anti-CHIKV activity: by inhibiting RNA production and viral protein expression, ref Lani et al., 2016
[4] = system: CHIKV-D-Luc SGR in Huh-7 cells; experiment: CHIKV-D-Luc SGR dual luciferase replicon assay in Huh-7 cells; settings: Huh-7, non-toxic concentrations
[5] = system: CHIKV-Fluc SGR in RD cells; experiment: CHIKV-Fluc replication assay in RD cells; settings: Chikungunya virus, read-out: inhibition of CHIKV replication
[6] = system: CHIKV-Fluc SGR in C2C12 cells; experiment: CHIKV-Fluc replication assay in C2C12 cells; settings: Chikungunya virus, C2C12, read-out: inhibition of CHIKV replication
[7] = Cell viability in C2C12 cells; type: cell-based, murine; settings: mouse, C2C12 myoblast cells electroporated with CHIKV-Fluc RNA
From the text: (§1) DMSO was used as non-treated control.

[8] = system: Huh-7 cells; experiment: MTT cell viability assay in Huh-7 cells; settings: 20 μM, Huh-7, MTT
[9] = Cell viability in RD cells; type: cell-based; settings: human, RD rhabdomyosarcoma cells electroporated with CHIKV-Fluc RNA
From the text: as §1

[10] = decimal comma; ref ZINC15; cited from earlier work

CC(c1ccccc1)N(Cc1nc(C(=O)NCCN2CCOCC2)co1)Cc1ccc(Cl)cc1Cl (centres unmarked) [Compound 1C5]
EC50 ([1]; Chikungunya virus, Huh-7, 24 h): 19.8 µM
SI (CC50/EC50) [1]: 1.4
CC50 at 24 h [2]: 27.5 µM

CC(c1ccccc1)N(Cc1nc(C(=O)NCCN2CCOCC2)co1)Cc1ccccc1F (centres unmarked) [Compound 3C5]
EC50 ([1]; Chikungunya virus, Huh-7, 24 h): 26.9 µM
SI (CC50/EC50) [1]: 1.5
CC50 at 24 h [2]: 40.5 µM

O=C(NCc1cccnc1)c1coc(CN(Cc2ccccc2)Cc2ccc3c(c2)OCO3)n1 [Compound 1C13]
EC50 ([1]; Chikungunya virus, Huh-7, 24 h): 6.9 µM
SI (CC50/EC50) [1]: 2.6
CC50 at 24 h [2]: 18.1 µM

COc1cccc(CN(Cc2nc(C(=O)NCCN3CCOCC3)co2)C(C)c2ccccc2)c1 (centres unmarked) [Compound 4C5]
EC50 ([1]; Chikungunya virus, Huh-7, 24 h): 29.3 µM
SI (CC50/EC50) [1]: 1.5
CC50 at 24 h [2]: 45.2 µM

O=c1cc(-c2ccccc2)oc2cc(O)c(O)c(O)c12 [Baicalein]
inhibition of virus entry versus replication ([3]; ref Oo et al., 2018): higher inhibition on virus entry than replication

CC(c1ccccc1)N(Cc1cccc(Cl)c1)Cc1nc(C(=O)NCCN2CCOCC2)co1 (centres unmarked) [Compound 2C5]
EC50 ([1]; Chikungunya virus, Huh-7, 24 h): 27.3 µM
SI (CC50/EC50) [1]: 1.0
CC50 at 24 h [2]: 27.4 µM

CC(c1ccccc1)N(Cc1cccc(F)c1)Cc1nc(C(=O)NCCN2CCOCC2)co1 (centres unmarked) [Compound C5]
CHIKV %replication 20 uM [1]: 53%
EC50 ([1]; Chikungunya virus, Huh-7, 24 h): 12.7 µM
inhibition at 20 µM ([1]; Chikungunya virus): 53%
SI (CC50/EC50) [1]: 3.1
Rluc levels (input translation and early replication) [4]: significantly decreased
inhibition at 100 µM [5]: 100%
inhibition at 100 µM [6]: 70%
viability at 24 h, 100 µM [7]: 49%
% Toxicity (20μM) [8]: None
CC50 at 24 h [2]: 38.9 µM
viability at 24 h, 20 µM [2]: 94%
viability at 24 h, 100 µM [9]: 65%

O=C(NCc1cccnc1)c1coc(CN(Cc2ccoc2)Cc2cccc(C(F)(F)F)c2)n1 [Compound C13]
CHIKV %replication 20 uM [1]: 66%
EC50 ([1]; Chikungunya virus, Huh-7, 24 h): 11.9 µM
inhibition at 20 µM ([1]; Chikungunya virus): 66%
SI (CC50/EC50) [1]: 3.2
EC50 [1]: 11.6 µM
logP ZINC15 [10]: 4,81
Rluc levels (input translation and early replication) [4]: significantly decreased
inhibition at 100 µM [5]: 95%
inhibition at 100 µM [6]: 64%
viability at 24 h, 100 µM [7]: 51%
% Toxicity (20μM) [8]: None
CC50 at 24 h [2]: 36.8 µM
viability at 24 h, 20 µM [2]: 94%
viability at 24 h, 100 µM [9]: 70%

O=c1c(O)c(-c2ccc(O)c(O)c2)oc2cc(O)c(O)c(O)c12 [quercetagetin]
in vitro anti-CHIKV activity [3]: showed in vitro anti-CHIKV activity

O=c1c(O)c(-c2ccc(O)c(O)c2)oc2cc(O)ccc12 [fisetin]
in vitro anti-CHIKV activity [3]: showed in vitro anti-CHIKV activity
